Biological target: T1, CYP2B6 (Homo sapiens, UniProt P20813)
T1 sequence (P20813 1-491): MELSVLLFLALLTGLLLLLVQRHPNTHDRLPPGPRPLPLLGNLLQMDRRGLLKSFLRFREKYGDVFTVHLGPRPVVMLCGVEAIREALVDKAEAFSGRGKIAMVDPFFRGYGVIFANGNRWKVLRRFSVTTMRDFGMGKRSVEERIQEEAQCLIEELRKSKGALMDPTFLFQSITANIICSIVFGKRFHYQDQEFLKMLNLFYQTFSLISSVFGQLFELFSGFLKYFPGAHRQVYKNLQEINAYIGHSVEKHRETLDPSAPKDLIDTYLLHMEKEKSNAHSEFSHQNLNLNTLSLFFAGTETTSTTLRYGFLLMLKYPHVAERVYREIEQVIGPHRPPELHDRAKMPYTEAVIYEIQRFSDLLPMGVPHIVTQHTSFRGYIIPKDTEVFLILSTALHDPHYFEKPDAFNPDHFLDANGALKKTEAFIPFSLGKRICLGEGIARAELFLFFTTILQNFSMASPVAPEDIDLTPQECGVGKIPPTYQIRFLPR
Test: Direct inhibition of CYP2B6 (Bupropion hydroxylase) activity in pooled human liver microsomes
Conditions: pH 7.4, probe Bupropion (hydroxylation to hydroxyBupropion)
Method: The total amount of organic solvent was ≦1%. Each incubation included 0.1 M phosphate buffer (pH 7.4), substrate, inhibitor and microsomal protein in a final volume of approximately 0.5 mL. Reactions were initiated by addition of NADPH (1 mM final concentration) and incubated for the indicated times at 37° C. with gentle agitation.
Control incubations included positive inhibitor control samples for direct inhibition as well as samples without NADPH. All reactions were terminated by the addition of organic solvent, and internal standard was added (when appropriate), and samples were mixed and centrifuged at approximately 3000 rpm for 10 minutes. The organic layer was transferred to a clean tube and evaporated to dryness at about 40° C. under nitrogen. The sample was reconstituted and analyzed by LC MS/MS.
Incubations to determine CYP2B6-mediated conversion of Bupropion to hydroxyBupropion (OHBP) in microsomal preparations were terminated by addition of 2.5 mL isoamyl alcohol: ethyl acetate (1:100, v:v). The internal standard, hydroxyBupropion-d6, and a saturated sodium chloride solution (0.25 mL) were added to all samples. […]
Reaction velocities (V) were calculated using Equation 1:
V(nmol/min/mg)=calculated ng/mL×0.5mL/(MW ng/nmol)/min/mg Equation 1
Percentage of remaining activity was determined using the following equation: […]

`S=P(N1CC1)(N1CC1)N1CC1` [Positive Control, ThioTEPA] showed an activity at 75 μM of 22.8%.

From patent publication US20100016294A1, “METHODS FOR REDUCING THE RISK OF AN ADVERSE DRUG I[…] A PATIENT SUFFERING FROM INSOMNIA” (QUESTCOR PHARMACEUTICALS, INC., priority 2008, published 2010)
